Literature values as cited in PMC3616063, “Genomic and Structural Characterization of Kunitz-Type Peptide LmKTT-1a Highlights Diversity and Evolution of Scorpion Potassium Channel Toxins” (PLoS ONE, 2013).

Legend:
Herg channels = conditions: ref [11]
Source text: (§1) Over the last 400 million years, scorpions have evolved many peptide toxins that target different potassium channels. Numerous potassium channel toxins have been isolated from scorpions including those identified by proteomic and transcriptome analysis of scorpion venom glands [2]–[4]. These toxins are divided into α-KTx, β-KTx, γ-KTx, and κ-KTx subfamilies based on their similarity, [6]. Some of the toxins are specific inhibitors that serve as useful pharmacological tools and candidate drugs that target various potassium channels. Examples include charybdotoxin (ChTX), ...

BKCa channels = conditions: ref [8]
Source text: as §1

Kv1.3 = conditions: ref [8]
Source text: as §1

IKCa channels = conditions: ref [10]
Source text: as §1

SKCa channels = conditions: ref [9]
Source text: as §1

In the case of “BeKm-1: scorpion toxin which inhibits Herg channels (RPTDIKCSESYQCFPVCKSRFGKTNGRCVNGFCDCF; UniProt Q9BKB7 22-57, looked up)”, the Herg channel inhibition (Herg channels) is given as “inhibits Herg channels”.
For charybdotoxin [charybdotoxin (ChTX)], the BKCa channel targeting (BKCa channels) is listed as “targeted toward Kv1.3 and BKCa channels” and the Kv1.3 channel targeting (Kv1.3) is listed as “targeted toward Kv1.3”.
For “maurotoxin (VSCTGSKDCYAPCRKQTGCPNAKCINKSCKCYGC; UniProt P80719 1-34, looked up) [maurotoxin (MTX)]”, the IKCa channel targeting (IKCa channels) is listed as “targeted toward IKCa channels”.
For “scyllatoxin (AFCNLRMCQLSCRSLGLLGKCIGDKCECVKH; UniProt P16341 1-31, looked up) [scyllatoxin (ScyTx)]”, the SKCa channel inhibition (SKCa channels) is listed as “inhibits SKCa channels”.
